The nature of this data set: Human intestinal absorption in po dosed human. To be noted: in vivo.
For the compound `CCCc1nc2c(C)cc(-c3nc4ccccc4n3C)cc2n1Cc1ccc(-c2ccccc2C(=O)O)cc1`, the Fa was found to be 90%. Under `N[C@H](Cc1ccccc1)C(=O)N1CCC[C@H]1C(=O)O` stands 100%. Under `CNS(=O)(=O)Cc1ccc2[nH]cc(CCN(C)C)c2c1` stands 57%. The result for `CC1=C(CC(=O)O)c2cc(F)ccc2/C1=C\c1ccc([S+](C)[O-])cc1` (stereo not given) reads 90%. `COc1ccccc1N1CCN(CCCNc2cc(=O)n(C)c(=O)n2C)CC1` returned a Fa of 78%.

For `Cc1cccc(C)c1NC(=O)NCCCNC(C)C`, the Fa came to 71%.

`CCOC(=O)[C@H](CCc1ccccc1)N[C@@H](C)C(=O)N1CCC[C@H]1C(=O)O` showed a Fa of 66%. Under `COc1ccc(CCN(C)CCCC(C#N)(c2ccc(OC)c(OC)c2)C(C)C)cc1OC` (stereo not given) stands 97%; under `CCCC(=O)Nc1ccc(OCC(O)CNC(C)C)c(C(C)=O)c1` (stereo not given) [ACEBUTOLOL], 80%. Under `CC(=O)Nc1ccc(O)cc1` [ACETAMINOPHEN] stands 80%.

On to `Cc1ccc(/C(=C\CN2CCCC2)c2cccc(/C=C/C(=O)O)n2)cc1` [ACRIVASTINE], for which the Fa came out at 88%.

The compound `Nc1nc2c(ncn2COCCO)c(=O)[nH]1` [ACYCLOVIR] gave a Fa of 23%.

The compound `Nc1ncnc2c1ncn2CCOCP(=O)(O)O` [ADEFOVIR] returned a Fa of 16%. The result for `Cc1nnc2n1-c1ccc(Cl)cc1C(c1ccccc1)=NC2` [ALPRAZOLAM] reads 90%. Consider `N=C(N)NC(=O)c1nc(Cl)c(N)nc1N` [AMILORIDE], for which the Fa is 50%.

`O=C1O[C@H]([C@@H](O)CO)C(O)=C1O` [ASCORBIC ACID] registered a Fa of 35%. The result for `CC(=O)Oc1ccccc1C(=O)O` [ASPIRIN] reads 82%; that for `NS(=O)(=O)c1cc(-c2nnn[nH]2)c(NCc2cccs2)cc1Cl` [AZOSEMIDE], 10%.

The compound `C[C@H]1[C@H](NC(=O)/C(=N\OC(C)(C)C(=O)O)c2csc(N)n2)C(=O)N1S(=O)(=O)O` [AZTREONAM] displayed a Fa of 1%. In turn, `CC(C)NCC(O)COc1ccc(CCOCC2CC2)cc1` (stereo not given) [BETAXOLOL] had a Fa of 90%.

The compound `O=C1CN=C(c2ccccn2)c2cc(Br)ccc2N1` [BROMAZEPAM] showed a Fa of 84%.

`Cn1c(=O)c2c(ncn2C)n(C)c1=O` [CAFFEINE] displayed a Fa of 100%. Under `CN(C)C(=O)OC1N=C(c2ccccc2)c2cc(Cl)ccc2N(C)C1=O` (stereo not given) [CAMAZEPAM] stands 100%. Under `C[C@H](CS)C(=O)N1CCC[C@H]1C(=O)O` [CAPTOPRIL] stands 84%. Under `CC1(C)S[C@@H]2[C@H](NC(=O)C(C(=O)Oc3ccccc3)c3ccccc3)C(=O)N2[C@H]1C(=O)O` (stereo not given in full) [CARBENICILLIN PHENYL] stands 99%; under `CC1=C(C(=O)O)N2C(=O)[C@@H](NC(=O)[C@H](N)c3ccc(O)cc3)[C@H]2SC1` [CEFADROXIL], 100%. In turn, `N[C@@H](C(=O)N[C@@H]1C(=O)N2C(C(=O)O)=C(CSc3c[nH]nn3)CS[C@H]12)c1ccc(O)cc1` [CEFATRIZINE] displayed a Fa of 75%. On to `CO/N=C(\C(=O)N[C@@H]1C(=O)N2C(C(=O)O)=CCS[C@H]12)c1csc(N)n1` [CEFTIZOXIME], for which the Fa amounted to 72%. Under `CO/N=C(\C(=O)N[C@@H]1C(=O)N2C(C(=O)OC(C)OC(C)=O)=C(COC(N)=O)CS[C@H]12)c1ccco1` (stereo not given in full) [CEFUROXIME AXETIL] stands 44%; under `O=C(N[C@H](CO)[C@H](O)c1ccc([N+](=O)[O-])cc1)C(Cl)Cl` [CHLORAMPHENICOL], 90%; under `ClC(Cl)Cl` [CHLOROFORM], 100%. In turn, `CN/C(=N/CCSCc1nc[nH]c1C)NC#N` [CIMETIDINE] yielded a Fa of 64%. The result for `COc1cc(N)c(Cl)cc1C(=O)NC1CCN(CCCOc2ccc(F)cc2)CC1OC` (stereo not given) [CISAPRIDE] reads 100%; that for `CCOC(=O)C(C)(C)Oc1ccc(Cl)cc1` [CLOFIBRATE], 97%; that for `Clc1cccc(Cl)c1N=C1NCCN1` [CLONIDINE], 95%.

In the case of `O=C([O-])c1cc(=O)c2c(OCC(O)COc3cccc4oc(C(=O)[O-])cc(=O)c34)cccc2o1.[Na+].[Na+]` [CROMOLYN SODIUM], the Fa was 4%.

The compound `N[C@@H]1CON=C1O` [CYCLOSERINE] had a Fa of 73%. In turn, `CO[C@H]1C[C@H](O[C@H]2CC[C@]3(C=O)[C@H]4CC[C@]5(C)[C@@H](C6=CC(=O)OC6)CC[C@]5(O)[C@@H]4CC[C@]3(O)C2)O[C@H](C)[C@H]1O` [CYMARIN] yielded a Fa of 47%. Compound `CNCCCN1c2ccccc2CCc2ccccc21` [DESIPRAMINE] came in with a Fa of 100%. The result for `C[C@H](N)Cc1ccccc1` [DEXTROAMPHETAMINE] reads 90%; that for `COc1ccc2c3c1O[C@H]1[C@@H](O)CC[C@H]4[C@@H](C2)N(C)CC[C@@]341` [DIHYDROCODEINE], 88%; that for `CN(CCCCCCN(C)C(=O)Oc1ccc[n+](C)c1)C(=O)Oc1ccc[n+](C)c1.[Br-].[Br-]` [DISTIGMINE BROMIDE], 8%. In the case of `COc1cccc2c1C(=O)c1c(O)c3c(c(O)c1C2=O)C[C@@](O)(C(=O)CO)C[C@@H]3O[C@H]1C[C@H](N)[C@H](O)[C@H](C)O1` [DOXORUBICIN], the Fa turned out to be 12%. The result for `NCCCC(N)(C(=O)O)C(F)F` (stereo not given) [EFLORNITHINE] reads 55%; that for `C[C@H](N[C@@H](CCc1ccccc1)C(=O)O)C(=O)N1CCC[C@H]1C(=O)O` [ENALAPRILAT ANHYDROUS], 25%. The result for `C#C[C@]1(O)CC[C@H]2[C@@H]3CCc4cc(O)ccc4[C@H]3CC[C@@]21C` [ETHINYL ESTRADIOL] reads 100%. Consider `COc1cc([C@@H]2c3cc4c(cc3[C@@H](O[C@@H]3O[C@@H]5CO[C@@H](C)O[C@H]5[C@H](O)[C@H]3O)[C@H]3COC(=O)[C@H]23)OCO4)cc(OC)c1O` [ETOPOSIDE], for which the Fa came out at 50%. Under `CC(=O)OCC(CCn1cnc2cnc(N)nc21)COC(C)=O` [FAMCICLOVIR] stands 77%; under `NC(N)=Nc1nc(CSCCC(N)=NS(N)(=O)=O)cs1` [FAMOTIDINE], 28%. In turn, `NC(=O)OCC(COC(N)=O)c1ccccc1` [FELBAMATE] showed a Fa of 90%. Under `CCOC(=O)C1=C(C)NC(C)=C(C(=O)OC)C1c1cccc(Cl)c1Cl` (stereo not given) [FELODIPINE] stands 88%. Compound `O=C(NCC1CCCCN1)c1cc(OCC(F)(F)F)ccc1OCC(F)(F)F` (stereo not given) [FLECAINIDE] displayed a Fa of 81%. Under `C[C@@H]1O[C@@H]1P(=O)(O)O` [FOSFOMYCIN] stands 31%. For the compound `O=CN(O)CCCP(=O)(O)O` [FOSMIDOMYCIN], the Fa worked out at 30%. Under `NCC1(CC(=O)O)CCCCC1` [GABAPENTIN] stands 59%; under `COc1ccc(CCN(C)CCCC(C#N)(c2cc(OC)c(OC)c(OC)c2)C(C)C)cc1OC` (stereo not given) [GALLOPAMIL], 100%; under `Cc1ccc(S(=O)(=O)NC(=O)NN2CC3CCCC3C2)cc1` (stereo not given) [GLICLAZIDE], 65%. The result for `COc1ccc(Cl)cc1C(=O)NCCc1ccc(S(=O)(=O)NC(=O)NC2CCCCC2)cc1` [GLYBURIDE] reads 100%. The compound `NCC(=O)O` [GLYCINE] displayed a Fa of 100%. Under `CN1C2CCCC1CC(NC(=O)c1nn(C)c3ccccc13)C2` (stereo not given) [GRANISETRON] stands 100%. For `N=C(N)N/N=C/c1c(Cl)cccc1Cl` [GUANABENZ], the Fa is 80%. `N=C(N)NCC1COc2ccccc2O1` (stereo not given) [GUANOXAN]: the Fa worked out at 50%. The result for `NS(=O)(=O)c1cc2c(cc1Cl)NCNS2(=O)=O` [HYDROCHLOROTHIAZIDE] reads 69%; that for `CN(C)CCCN1c2ccccc2CCc2ccccc21` [IMIPRAMINE], 100%; that for `Nc1cc(-c2ccncc2)c[nH]c1=O` [INAMRINONE], 93%. In turn, `CNC(=O)c1c(I)c(NC(C)=O)c(I)c(C(=O)[O-])c1I.[Na+]` [IOTHALAMATE SODIUM] had a Fa of 2%. Under `NNC(=O)c1ccncc1` [ISONIAZID] stands 80%; under `Cc1cc(NC(=O)C2=C(O)c3ccccc3S(=O)(=O)N2C)no1` [ISOXICAM], 100%; under `CC(C(=O)O)c1cccc(C(=O)c2ccccc2)c1` (stereo not given) [KETOPROFEN], 92%. Under `O=C(c1ccccc1)c1ccc2n1CCC2C(=O)O` (stereo not given) [KETOROLAC] stands 90%. Under `CC(CCc1ccccc1)NCC(O)c1ccc(O)c(C(N)=O)c1` (stereo not given) [LABETALOL] stands 95%; under `OC[C@H]1O[C@@H](O[C@@H]2[C@@H](CO)O[C@](O)(CO)[C@H]2O)[C@H](O)[C@@H](O)[C@H]1O` [LACTULOSE], 1%. As to `Nc1ccn([C@@H]2CS[C@H](CO)O2)c(=O)n1` [LAMIVUDINE], the Fa stood at 85%.

As to `Nc1nnc(-c2cccc(Cl)c2Cl)c(N)n1` [LAMOTRIGINE], the Fa stood at 98%. For the compound `Cc1c(OCC(F)(F)F)ccnc1C[S+]([O-])c1nc2ccccc2[nH]1` (stereo not given) [LANSOPRAZOLE], the Fa worked out at 85%.

For the compound `N[C@@H](Cc1ccc(O)c(O)c1)C(=O)O` [LEVODOPA], the Fa came out at 86%. Regarding `C#C[C@]1(O)CC[C@H]2[C@@H]3CCC4=CC(=O)CC[C@@H]4[C@H]3CC[C@@]21CC` [LEVONORGESTREL], the Fa worked out at 100%. Under `CCC[C@@H]1C[C@@H](C(=O)N[C@@H]([C@H]2O[C@H](SC)[C@H](O)[C@@H](O)[C@H]2O)[C@@H](C)O)N(C)C1` [LINCOMYCIN] stands 28%. Turning to `NCCCC[C@H](N[C@@H](CCc1ccccc1)C(=O)O)C(=O)N1CCC[C@H]1C(=O)O` [LISINOPRIL ANHYDROUS], the Fa was 28%. Under `N[C@@H](C(=O)N[C@@H]1C(=O)N2C(C(=O)O)=C(Cl)CC[C@H]12)c1ccccc1` [LORACARBEF ANHYDROUS] stands 100%. Under `CN1C(=O)C(O)N=C(c2ccccc2Cl)c2cc(Cl)ccc21` (stereo not given) [LORMETAZEPAM] stands 100%. Under `CN1C(C(=O)Nc2ccccn2)=C(O)c2sc(Cl)cc2S1(=O)=O` [LORNOXICAM] stands 100%; under `OC[C@@H](O)[C@@H](O)[C@H](O)[C@H](O)CO` [MANNITOL], 16%; under `Cc1cnc(NC(=O)C2=C(O)c3ccccc3S(=O)(=O)N2C)s1` [MELOXICAM], 90%. `O=S(=O)([O-])CCS.[Na+]` [MESNA] had a Fa of 77%.

These data come from ChEMBL document CHEMBL1157012, “Neural computational prediction of oral drug absorption based on CODES 2D descriptors” (Eur J Med Chem, 2010).
